From patent US6818642B2, “Benzylaminopyrimidines” (Altana Pharma AG, priority 2001, dated 2004)
In brackets after ≈: the same amount, converted by molar mass.

What was measured:
[1] = test system: Helicobacter pylori; experiment: Inhibition of growth in vitro in liquid culture (NanoOrange fluorescence); format: cell-based; conditions: BHI/6% FCS medium, 24 hours, 37° C., microaerobic, 1% DMSO
Experimental: (§1) Determination of the Inhibition of Growth in Vitro in Liquid Culture
(§2) The principle of the technique is based on the detection of the multiplication of, for example, Helicobacter pylori in liquid culture using BHI/6% FCS medium. The method ensures linear fluorescence increase in the range from […].
(§3) The bacterial culture was distributed with an initial density of 1-3×10^8 microbes/ml in a 96-well MTP in 100 μl aliquots. The test substances in a concentration of […] in a final concentration of 1% DMSO were added to these minicultures. These MTPs were then incubated under microaerobic conditions (Anaerokult, Merck) and with shaking at 37° C. for 24 hours. Following the 24-hour incubation, the minicultures were transferred to filter MTPs and washed twice with isotonic buffer (filtered off with suction, taken up, shaken) and finally were taken up in double-distilled water and shaken, and an aliquot was transferred to a new MTP. This aliquot was admixed with the fluorescent dye NanoOrange (Molecular Probes) in accordance with the manufacturer's instructions. Development of protein detection took piece at 90° C. in a pressure-secured sandwich technique. After the plates had cooled, the fluorescence was measured on a plate reader at 549 nm. […] This calculation was made using origin, sigmoidal curve adaptation by means of the ‘logistic’ algorithm.

[2] = test system: E. coli; experiment: as above; format: cell-based; conditions: Escherichia coli, 24 hours incubation
Experimental: as §1, §2, §3

[3] = test system: Helicobacter pylori; experiment: Helicobacter pylori eradication rate in vivo (urease test); conditions: infected gerbils, 50 mg/kg by tube, 3 × daily, 4 days; urease test of antrum tissue four weeks after last treatment
Experimental: Determination of the Helicobacter Pylori Eradication Rate in Vivo
Gerbils were infected on days 1, 3, and 5 with a suspension containing 108-109 Helicobacter pylori bacteria per animal. […] Beginning on day 36, the gerbils were treated on four successive days—three times daily at 07.30, 11.30, and 15.00 hours—with a placebo or the test substance, using a tube. Four weeks after the last treatment, the gerbils were sacrificed using CO2. A tissue sample of the antrum was introduced into the urease test solution and incubated at 37° C. for 24 hours. Changes in color of the solution from yellow to violet, which resulted from the increase in pH caused by the formation of NH3 from the urease, were detected. The eradication rate was calculated as the percentage of animals whose stomach tissue sample gave a negative urease test.
Conditions Under Which the Animals Were Kept:
Groups of 5-10 gerbils per cage (type IV Macrolon cage) were kept at an ambient temperature of 23±2° C. and a relative humidity of 50±10%. They were fed ad libitum with NAFAG feed No. 9439 for rats and mice (NAFAG AG, CH-2900, Gosseu, Switzerland) and had free access to mains water during the experiment.
The substances administered are referenced in table C below using numbers which correspond to the numbers of the compounds in the examples.

[4] = test system: Helicobacter pylori; experiment: Agar dilution test (inhibition of growth in vitro on agar plates); format: cell-based; conditions: Columbia agar (Oxoid), growth period of 4 days; for MIC50: Helicobacter pylori, 96 h, read-out: approx. MIC50

Compound	melting point	Eradication rate [3]	MIC50 [4]	further results
Cc1nc(C)c(Cl)c(NCc2ccc(Oc3ccc4ncc([N+](=O)[O-])n4n3)cc2)n1 [Compound 1, (5-Chloro-2,6-dimethylpyrimidin-4-yl)[4-(3-nitroimidazo[1,2-b]pyridazin-6-yloxy)benzyl]amine]	203 °C	100%	~0.005 µg/mL (≈ 0.0117 µM)	IC50 [1]: 26 nM; IC50 [2]: > 1000 nM
Cc1nc(C)c(Cl)c(NCc2cccc(Oc3ccc4ncc([N+](=O)[O-])n4n3)c2)n1 [Compound 3, (5-Chloro-2,6-dimethylpyrimidin-4-yl)[3-(3-nitroimidazo[1,2-b]pyridazin-6-yloxy)benzyl]-amine]	222 to 223 °C		~0.05 µg/mL (≈ 0.117 µM)	
COc1cc(CNc2nc(C)nc(C)c2Cl)ccc1Oc1ccc2ncc([N+](=O)[O-])n2n1 [Compound 4, (5-Chloro-2,6-dimethylpyrimidin-4-yl)[3-methoxy-4-(3-nitroimidazo[1,2-b]pyridazin-6-yloxy)-benzyl]amine]	229 to 232 °C	100%	~0.001 µg/mL (≈ 0.00219 µM)	
Cc1nc(C)c(Cl)c(NCc2ccc(Oc3ccc4ncc([N+](=O)[O-])n4n3)c(OCC3CC3)c2)n1 [Compound 6, (5-Chloro-2,6-dimethylpyrimidin-4-yl)[3-cyclopropylmethoxy-4-(3-nitroimidazo[1,2-b]pyridazin-6-yloxy)benzyl]amine]	178 to 180 °C			
Cc1nc(C)c(Cl)c(NCc2ccc(Oc3ccc4ncc([N+](=O)[O-])n4n3)c(OC(F)F)c2)n1 [Compound 8, (5-Chloro-2,6-dimethylpyrimidin-4-yl)[3-(1,1-difluoromethoxy)-4-(3-nitroimidazo[1,2-b]pyridazin-6-yloxy)benzyl]amine]	191 to 193.5 °C	100%	~0.01 µg/mL (≈ 0.0203 µM)	
Cc1nc(C)c(Cl)c(NCc2ccc(Oc3ccc4ncc([N+](=O)[O-])n4n3)c(C)c2)n1 [Compound 9, (5-Chloro-2,6-dimethylpyrimidin-4-yl)[3-methyl-4-(3-nitroimidazo[1,2-b]pyridazin-6-yloxy)-benzyl]amine]	183 to 185 °C		~0.001 µg/mL (≈ 0.00227 µM)	
Cc1nc(C)c(Cl)c(NCc2ccc(Oc3ccc4ncc([N+](=O)[O-])n4n3)c(F)c2)n1 [Compound 10, (5-Chloro-2,6-dimethylpyrimidin-4-yl)[3-fluoro-4-(3-nitroimidazo[1,2-b]pyridazin-6-yloxy)-benzyl]amine]	193 to 196 °C	100%	~0.01 µg/mL (≈ 0.0225 µM)	
Cc1nc(C)c(Cl)c(NCc2ccc(Oc3ccc4ncc([N+](=O)[O-])n4n3)cc2F)n1 [Compound 11, (5-Chloro-2,6-dimethylpyrimidin-4-yl)[2-fluoro-4-(3-nitroimidazo[1,2-b]pyridazin-6-yloxy)-benzyl]amine]	147 to 149 °C	100%	~0.01 µg/mL (≈ 0.0225 µM)	
Cc1nc(C)c(Cl)c(NCc2ccc(Oc3ccc4ncc([N+](=O)[O-])n4n3)c(OCC(F)(F)F)c2)n1 [Compound 12, (5-Chloro-2,6-dimethylpyrimidin-4-yl)[4-(3-nitroimidazo[1,2-b]pyridazin-6-yloxy)-3-(2,2,2-trifluoroethoxy)benzyl]amine]	185 to 188 °C		~0.01 µg/mL (≈ 0.0191 µM)	
COc1cc(CNc2nc(C)nc(C)c2Cl)cc(Oc2ccc3ncc([N+](=O)[O-])n3n2)c1 [Compound 13, (5-Chloro-2,6-dimethylpyrimidin-4-yl)[3-methoxy-5-(3-nitroimidazo[1,2-b]pyridazin-6-yloxy)-benzyl]amine]	198 to 199 °C			
Cc1nc(C)c(Cl)c(NCc2cc(O)cc(Oc3ccc4ncc([N+](=O)[O-])n4n3)c2)n1 [Compound 14, 3-[(5-Chloro-2,6-dimethylpyrimidin-4-ylamino)methyl]-5-(3-nitroimidazo[1,2-b]pyridazin-6-yloxy)phenol]	263 °C		~0.01 µg/mL (≈ 0.0226 µM)	
Cc1nc(C)c(Cl)c(NCc2cc(Oc3ccc4ncc([N+](=O)[O-])n4n3)ccc2F)n1 [Compound 15, (5-Chloro-2,6-dimethylpyrimidin-4-yl)[2-fluoro-5-(3-nitroimidazo[1,2-b]pyridazin-6-yloxy)-benzyl]amine]			~0.001 µg/mL (≈ 0.00225 µM)	
COc1cc(CNc2nc(C)nc(C)c2Cl)cc(Br)c1Oc1ccc2ncc([N+](=O)[O-])n2n1 [Compound 16, [3-Bromo-5-methoxy-4-(3-nitroimidazo[1,2-b]pyridazin-6-yloxy)benzyl](5-chloro-2,6-dimethyl-pyrimidin-4-yl)amine]	230 to 234 °C	100%		
O=[N+]([O-])c1cnc2ccc(Oc3ccc(CNc4ncncc4Cl)cc3)nn12 [Compound 17, (5-Chloro-pyrimidin-4-yl)-[4-(3-nitro-imidazo[1,2-b]pyridazin-6-yloxy)-benzyl]-amine]	185 °C			
Cc1nc(C)c(Cl)c(NCc2ccc(Oc3ccc4ncc([N+](=O)[O-])n4n3)c(O)c2)n1 [Compound 18, (5-Chloro-2,6-dimethyl-pyrimidin-4-yl)-[4-(3-nitro-imidazo[1,2-b]pyridazin-6-yloxy)-5-hydroxy-benzyl]-amine]	> 114 °C			
(5-Chloro-2,6-dimethylpyrimidin-4-yl)[4-methoxy-3-nitroimidazo[1,2-b]pyridazin-6-yloxy)-benzyl]amino [Compound 5]				approx. MIC50 [4]: ~0.05 mg/L
